Source: article PMC10023787, “Trio-pharmacophore DNA-encoded chemical library for simultaneous selection of fragments and linkers” (Nature Communications, 2023)

What was measured:
MMP-2 [1] = target: T1, MMP-2 (Homo sapiens, UniProt P08253); test: MMP-2 inhibition assay (fluorogenic peptide substrate); type: biochemical
T1 construct: purchased Sino Biological 10082-HNAH
T1 sequence (P08253 110-660): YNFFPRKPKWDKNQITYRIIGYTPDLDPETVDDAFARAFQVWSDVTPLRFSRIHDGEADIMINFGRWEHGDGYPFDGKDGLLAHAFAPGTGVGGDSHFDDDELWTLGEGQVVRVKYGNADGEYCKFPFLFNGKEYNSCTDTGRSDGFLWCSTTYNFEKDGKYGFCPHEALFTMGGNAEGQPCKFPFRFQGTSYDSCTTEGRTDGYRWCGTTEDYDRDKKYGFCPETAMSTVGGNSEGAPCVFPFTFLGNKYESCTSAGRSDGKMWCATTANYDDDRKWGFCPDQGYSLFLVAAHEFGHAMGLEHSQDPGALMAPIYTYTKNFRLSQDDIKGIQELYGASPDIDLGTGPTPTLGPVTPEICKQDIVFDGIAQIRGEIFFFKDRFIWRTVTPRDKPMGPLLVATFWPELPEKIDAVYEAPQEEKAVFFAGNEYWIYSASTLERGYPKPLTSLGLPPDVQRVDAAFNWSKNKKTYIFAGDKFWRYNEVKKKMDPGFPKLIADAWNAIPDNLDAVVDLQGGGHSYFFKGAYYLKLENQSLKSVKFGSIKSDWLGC
Method in brief: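 Hydrolysis of DNP-Pro-Leu-Gly-Met-Trp-Ser-Arg (25 μM final) was tracked kinetically at em 360 nm over 30 min. Enzymes, APMA-activated and at 10 nM (MMP-9) or 6.5 nM (MMP-2) final, sat 30 min at RT with inhibitor in pH 7.5 Tris buffer with CaCl2 and Brij 35 first. Logistic fitting of Vmax against concentration gave IC50, in triplicate.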

MMP-2 [2] = target: T1, MMP-2; test: De novo T-DEL selection against MMP-2, NGS decoding; type: binding; settings: de novo T-DEL selection against MMP-2 (Figure 4a source data)
Description: Matrix metalloproteinases (MMPs) are zinc-dependent endopeptidases capable of degrading and remodeling extracellular matrix components[46],[47]. They are attractive therapeutic targets as high expression levels were detected in various diseases, such as inflammatory diseases, and at different stages of cancers, including metastasis, invasion, and angiogenesis[47]–[53]. As shown in Supplementary Fig. 3c, we performed selections against the two gelatinases (human MMP-2 and human MMP-9) to identify binding fragments for later design and synthesis of small molecule inhibitors. After selection, the three sub-libraries were decoded, and the enrichment was calculated by dividing the post-selection fraction (count/total counts) by the pre-selection fraction (Fig. 4a and Supplementary Fig. 13).
4 µg of MMP-2/MMP-9 was dissolved in 100 µl of selection buffer containing 25 mM Tris-base, 10 mM CaCl2, 150 mM NaCl, 0.05% Tween 20, pH 7.5. 10 µl of 4-Aminophenylmercuric acetate (APMA) (100 mM) solution was added to the protein solution and incubated at 37 °C for 1 h. After activation, the solution was added on top of 40 µl pre-washed Ni-NTA resin and incubated for 30 min on a rotary shaker. The supernatant was discarded, and the resin was washed three times with the selection buffer.
For each independent selection, three sub-libraries were mixed in the selection buffer with a final concentration of 40 nM of each sub-library in 100 µl. The mixture was heat denatured at 90 °C for 1 min and slowly cooled down to allow the formation of the trio-pharmacophore library. The dynamic dual-pharmacophore DEL was provided by DyNAbind GmbH (Merck, DYNA001).
The assembled library was incubated with the protein-bound solid support for 2 h at RT on a rotary shaker. In parallel, selection on bare solid support served as the negative control to exclude promiscuous binders on the resin. After panning, the supernatant was discarded, and the resin was washed three times with 1 ml selection buffer. Finally, 100 µl of 50 mM Tris buffer, pH 7.4 was added to resuspend the resin and the resin was incubated at 95 °C for 5 min to denature the protein, release, and collect the bound library members.
The eluted library members were subjected to sample preparation for NGS. NGS preparation was achieved by two-step PCR. First, the individual selection was indexed using primers containing unique sequences corresponding to each selection. The amplified product was purified from 2% agarose gel. Second, the purified DNA from all selections were pooled in equal amount and subjected to the 2nd PCR step to attach sequences compatible with the NGS flow cell and the sequencing primers. NGS was performed by Novogene UK with Novaseq 6000. Raw data files (fastq files) obtained were decoded using a custom python script and excel. The sequence reads corresponding to each sample was retrieved by searching for the correct index unique to each selection. Then, the code region was extracted from each sequence and assigned to the corresponding identity. The count of each code in each selection sample was obtained by looping through the total reads and counting the occurrence of each code. The enrichment fold of each compound was calculated by first, dividing the count by the total count to get the abundance, second, the abundance after the selection was divided by the abundance of pre-selection to reflect the distribution change of the compound. Next, the enrichment fold was plotted against the count for each member of the library to give the scatter plots as in Fig. 4.

remaining activity at 0.0152381 µM (MMP-2 [1]; Figure 5a, fragment concentration 0.0152381 µM, read-out: Normalized activity (Mean)): 97.3%
remaining activity at 0.0761905 µM (MMP-2 [1]; Figure 5a, fragment concentration 0.0761905 µM, read-out: Normalized activity (Mean)): 97.1%
remaining activity at 0.380952 µM (MMP-2 [1]; Figure 5a, fragment concentration 0.380952 µM, read-out: Normalized activity (Mean)): 98.7%
remaining activity at 1.90476 µM (MMP-2 [1]; Figure 5a, fragment concentration 1.90476 µM, read-out: Normalized activity (Mean)): 98.1%
remaining activity at 9.52381 µM (MMP-2 [1]; Figure 5a, fragment concentration 9.52381 µM, read-out: Normalized activity (Mean)): 87.4%
remaining activity at 47.619 µM (MMP-2 [1]; Figure 5a, fragment concentration 47.619 µM, read-out: Normalized activity (Mean)): 71.6%
remaining activity at 238.095 µM (MMP-2 [1]; Figure 5a, fragment concentration 238.095 µM, read-out: Normalized activity (Mean)): 16.9%
remaining activity at 1190.48 µM (MMP-2 [1]; Figure 5a, fragment concentration 1190.48 µM, read-out: Normalized activity (Mean)): 0%
remaining activity at 0.0152 µM (MMP-2 [1]; MMP-2, concentration 0.0152 µM, read-out: Mean (MMP-2, Supplementary fig 16)): 97.3%
remaining activity at 0.08 µM (MMP-2 [1]; MMP-2, concentration 0.08 µM, read-out: Mean (MMP-2, Supplementary fig 16)): 97.1%
remaining activity at 1.9 µM (MMP-2 [1]; MMP-2, concentration 1.90 µM, read-out: Mean (MMP-2, Supplementary fig 16)): 98.2%
remaining activity at 9.52 µM (MMP-2 [1]; MMP-2, concentration 9.52 µM, read-out: Mean (MMP-2, Supplementary fig 16)): 87.4%
remaining activity at 47.62 µM (MMP-2 [1]; MMP-2, concentration 47.62 µM, read-out: Mean (MMP-2, Supplementary fig 16)): 71.6%
remaining activity at 238.1 µM (MMP-2 [1]; MMP-2, concentration 238.10 µM, read-out: Mean (MMP-2, Supplementary fig 16)): 16.9%
remaining activity at 0.38 µM (MMP-2 [1]; MMP-2, concentration 0.38 µM, read-out: Mean (MMP-2, Supplementary fig 16)): 98.7%
IC50 (MMP-2 [1]; mean ± SE, n.d: not detected, Fig. 5d unit inferred, µM, read-out: IC50): 95.8 µM
MMP2 SL-A Count (MMP-2 [2]; NGS sequence count per SL-A member): 3616
MMP2 SL-C Count (MMP-2 [2]; NGS sequence count per SL-C member): 971
MMP2 SL-A Enrichment Fold (MMP-2 [2]; enrichment fold per SL-A member): 1.934
MMP2 SL-C Enrichment Fold (MMP-2 [2]; enrichment fold per SL-C member): 0.9721
SMILES: O=C(O)Cn1cnc2c(oc3ccccc32)c1=O [Compound 182]
